Earlier results in patent US8333959B2, “Ex-vivo application of solid microparticulate therapeutic agents” (Baxter International Inc., priority 2004, dated 2012).

Tested on: HIV-infected macrophages

Question: For `CC(C)(C)NC(=O)[C@@H]1C[C@@H]2CCCC[C@@H]2CN1C[C@@H](O)[C@H](Cc1ccccc1)NC(=O)[C@H](CC(N)=O)NC(=O)c1ccc2ccccc2n1` [saquinavir], which “antiviral activity in HIV-infected macrophages” value (HIV-infected macrophages, in vitro, solution vs nanoparticulate formulation) is on record?
Answer: Its value is “little antiviral activity”.

Question: And the “antiviral activity in chronically HIV-infected macrophages” value (concentration of 100 nM, chronically HIV-infected macrophages)?
Answer: The value was “completely inactive”.
